Where a name gives a salt, the structure may show the parent alone.
target: T1, IRAK4 (Homo sapiens, UniProt Q9NWZ3); experiment: biochemical; details: not given
T1 sequence (Q9NWZ3 1-460): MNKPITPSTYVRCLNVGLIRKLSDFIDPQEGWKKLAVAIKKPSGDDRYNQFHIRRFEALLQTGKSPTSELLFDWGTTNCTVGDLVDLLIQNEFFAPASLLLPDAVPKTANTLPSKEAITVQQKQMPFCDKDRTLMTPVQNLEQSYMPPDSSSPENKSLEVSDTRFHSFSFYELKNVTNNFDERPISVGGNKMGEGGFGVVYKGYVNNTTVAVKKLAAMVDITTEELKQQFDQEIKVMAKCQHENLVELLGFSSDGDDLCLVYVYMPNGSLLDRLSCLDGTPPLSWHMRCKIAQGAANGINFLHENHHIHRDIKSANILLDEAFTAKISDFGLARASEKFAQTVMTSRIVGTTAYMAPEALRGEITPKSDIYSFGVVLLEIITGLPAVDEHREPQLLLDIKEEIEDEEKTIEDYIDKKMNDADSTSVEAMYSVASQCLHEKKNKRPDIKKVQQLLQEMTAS

SMILES	IC50 [µM]
CC(C)Oc1cc2nc(C34COC(C)(C3)C4)cn2cc1C(=O)Nc1cccc2cn(C)nc12 [Example 318, 7-Isopropoxy-N-(2-methyl-2H-indazol-7-yl)-2-(1-methyl-2-oxabicyclo[2.1.1]hexan-4-yl)imidazo[1,2-a]pyridine-6-carboxamide]	0.001
CC(C)Oc1cc2nc(C34COC(C)(C3)C4)cn2cc1C(=O)Nc1ccnc2cccnc12 [Example 319, 7-Isopropoxy-2-(1-methyl-2-oxabicyclo[2.1.1]hexan-4-yl)-N-(1,5-naphthyridin-4-yl)imidazo[1,2-a]pyridine-6-carboxamide]	0.0016
CC(C)Oc1cc2nc(C34COC(C)(C3)C4)cn2cc1C(=O)Nc1cncc2cccnc12 [Example 320, 7-Isopropoxy-2-(1-methyl-2-oxabicyclo[2.1.1]hexan-4-yl)-N-(1,6-naphthyridin-8-yl)imidazo[1,2-a]pyridine-6-carboxamide]	0.0004
CC(C)Oc1cc2nc(C34COC(C)(C3)C4)cn2cc1C(=O)Nc1cnn2cc(C3CC3)cnc12 [Example 322, N-(6-cyclopropylpyrazolo[1,5-a]pyrimidin-3-yl)-7-isopropoxy-2-(1-methyl-2-oxabicyclo[2.1.1]hexan-4-yl)imidazo[1,2-a]pyridine-6-carboxamide]	0.0019
CC(Oc1cc2nc(C34COC(C)(C3)C4)cn2cc1C(=O)Nc1cccc(C(F)F)n1)C(F)(F)F (stereo not shown) [Example 323, N-(6-(difluoromethyl)pyridin-2-yl)-2-(1-methyl-2-oxabicyclo[2.1.1]hexan-4-yl)-7-((1,1,1-trifluoropropan-2-yl)oxy)imidazo[1,2-a]pyridine-6-carboxamide]	0.0007
CC(C)Oc1cc2nc(C34COC(C)(C3)C4)c(F)n2cc1C(=O)Nc1cccn(C(F)F)c1=O [Example 326, N-(1-(difluoromethyl)-2-oxo-1,2-dihydropyridin-3-yl)-3-fluoro-7-isopropoxy-2-(1-methyl-2-oxabicyclo[2.1.1]hexan-4-yl)imidazo[1,2-a]pyridine-6-carboxamide]	0.0019
CC(C)Oc1cc2nc(C34COC(C)(C3)C4)c(F)n2cc1C(=O)Nc1cnn2cccnc12 [Example 328, 3-Fluoro-7-isopropoxy-2-(1-methyl-2-oxabicyclo[2.1.1]hexan-4-yl)-N-(pyrazolo[1,5-a]pyrimidin-3-yl)imidazo[1,2-a]pyridine-6-carboxamide]	0.006
CC(C)Oc1cc2nc(C34COC(C)(C3)C4)c(F)n2cc1C(=O)Nc1cccc2ncnn12 [Example 329, N-([1,2,4]triazolo[1,5-a]pyridin-5-yl)-3-fluoro-7-isopropoxy-2-(1-methyl-2-oxabicyclo[2.1.1]hexan-4-yl)imidazo[1,2-a]pyridine-6-carboxamide trifluoroactate]	0.0012
CC(C)Oc1cc2nc(C3COCCO3)cn2cc1C(=O)Nc1cnn2cccnc12 (stereo not shown) [Example 331, 2-(1,4-Dioxan-2-yl)-7-isopropoxy-N-(pyrazolo[1,5-a]pyrimidin-3-yl)imidazo[1,2-a]pyridine-6-carboxamide]	0.002
COc1ncccc1NC(=O)c1cn2cc(C34COC(C)(C3)C4)nc2c(OC(C)C)n1 [Example 337, 8-Isopropoxy-N-(2-methoxypyridin-3-yl)-2-(1-methyl-2-oxabicyclo[2.1.1]hexan-4-yl)imidazo[1,2-a]pyrazine-6-carboxamide]	0.0004
COc1ncccc1NC(=O)c1cn2cc(C34COC(CF)(C3)C4)nc2c(OC(C)C)n1 [Example 339, 2-(1-(Fluoromethyl)-2-oxabicyclo[2.1.1]hexan-4-yl)-8-isopropoxy-N-(2-methoxypyridin-3-yl)imidazo[1,2-a]pyrazine-6-carboxamide]	0.0008
CC(C)Oc1nc(C(=O)Nc2cnn3cccnc23)cn2cc(C34COC(CF)(C3)C4)nc12 [Example 340, 2-(1-(Fluoromethyl)-2-oxabicyclo[2.1.1]hexan-4-yl)-8-isopropoxy-N-(pyrazolo[1,5-a]pyrimidin-3-yl)imidazo[1,2-a]pyrazine-6-carboxamide]	0.0067
CC(C)Oc1nc(C(=O)Nc2cccn(C)c2=O)cn2cc(C34CCC(C)(C3)OC4)nc12 (stereo not shown) [Example 341, 8-Isopropoxy-N-(1-methyl-2-oxo-1,2-dihydropyridin-3-yl)-2-(1-methyl-2-oxabicyclo[2.2.1]heptan-4-yl)imidazo[1,2-a]pyrazine-6-carboxamide]	0.0009
CC12CC(c3cn4cc(C(=O)Nc5cccc(C(F)F)n5)nc(OC5CCC5)c4n3)(CO1)C2 [Example 345, 8-Cyclobutoxy-N-(6-(difluoromethyl)pyridin-2-yl)-2-(1-methyl-2-oxabicyclo[2.1.1]hexan-4-yl)imidazo[1,2-a]pyrazine-6-carboxamide]	0.0022

The next lines start with the values.

IC50 [µM]	SMILES
0.0002	CC(C)Oc1cc2nc(C3COCCO3)cn2cc1C(=O)Nc1cccc(C(F)F)n1 (stereo not shown) [Example 330, N-(6-(difluoromethyl)pyridin-2-yl)-2-(1,4-dioxan-2-yl)-7-isopropoxy-imidazo[1,2-a]pyridine-6-carboxamide]
0.0599	CC12CC(c3cn4cc(C(=O)Nc5cccc(C(F)F)n5)ncc4n3)(CO1)C2 [Example 334, N-(6-(Difluoromethyl)pyridin-2-yl)-2-(1-methyl-2-oxabicyclo[2.1.1]hexan-4-yl)imidazo[1,2-a]pyrazine-6-carboxamide]
0.0006	CCCOc1nc(C(=O)Nc2cccc(C(F)F)n2)cn2cc(C3CCOCC3)nc12 [Example 335, N-(6-(difluoromethyl)pyridin-2-yl)-8-propoxy-2-(tetrahydro-2H-pyran-4-yl)imidazo[1,2-a]pyrazine-6-carboxamide]
0.0021	CC(C)Oc1nc(C(=O)Nc2cccc(C(F)F)n2)cn2cc(C34COC(C)(C3)C4)nc12 [Example 336, N-(6-(difluoromethyl)pyridin-2-yl)-8-isopropoxy-2-(1-methyl-2-oxabicyclo[2.1.1]hexan-4-yl)imidazo[1,2-a]pyrazine-6-carboxamide]
0.0105	CC(C)Oc1nc(C(=O)Nc2cccc(C(F)F)n2)cn2cc(C34COC(CF)(C3)C4)nc12 [Example 338, N-(6-(difluoromethyl)pyridin-2-yl)-2-(1-(fluoromethyl)-2-oxabicyclo[2.1.1]hexan-4-yl)-8-isopropoxyimidazo[1,2-a]pyrazine-6-carboxamide]
0.001	CCCOc1nc(C(=O)Nc2cccnc2OC)cn2cc(C34COC(C)(C3)C4)nc12 [Example 342, N-(2-methoxypyridin-3-yl)-2-(1-methyl-2-oxabicyclo[2.1.1]hexan-4-yl)-8-propoxyimidazo[1,2-a]pyrazine-6-carboxamide]
0.0048	CCCOc1nc(C(=O)Nc2cccc(C(F)(F)F)n2)cn2cc(C34COC(C)(C3)C4)nc12 [Example 343, 2-(1-Methyl-2-oxabicyclo[2.1.1]hexan-4-yl)-8-propoxy-N-(6-(trifluoromethyl)pyridin-2-yl)imidazo[1,2-a]pyrazine-6-carboxamide]
0.0034	CC12CC(c3cn4cc(C(=O)Nc5cccc(C(F)F)n5)nc(OCC(F)F)c4n3)(CO1)C2 [Example 344, 8-(2,2-Difluoroethoxy)-N-(6-(difluoromethyl)pyridin-2-yl)-2-(1-methyl-2-oxabicyclo[2.1.1]hexan-4-yl)imidazo[1,2-a]pyrazine-6-carboxamide]

same assay, conditions: IRAK4 Biochemical Assay (1 mM ATP, 2 h) IC50 (μM), 1 mM ATP, 2 h, 100 pM IRAK4

SMILES	IC50 [µM]
CC(C)Oc1cc2nc(C34COC(C)(C3)C4)cn2cc1C(=O)Nc1cnc2cccnn12 [Example 321, N-(imidazo[1,2-b]pyridazin-3-yl)-7-isopropoxy-2-(1-methyl-2-oxabicyclo[2.1.1]hexan-4-yl)imidazo[1,2-a]pyridine-6-carboxamide 2,2,2-trifluoroacetate]	0.0003
COc1ncccc1NC(=O)c1cn2c(F)c(C34COC(C)(C3)C4)nc2cc1OC(C)C [Example 325, 3-Fluoro-7-isopropoxy-N-(2-methoxypyridin-3-yl)-2-(1-methyl-2-oxa-bicyclo[2.1.1]hexan-4-yl)imidazo[1,2-a]pyridine-6-carboxamide trifluoroacetate]	0.0086
CC(C)Oc1cc2nc(C34COC(C)(C3)C4)c(F)n2cc1C(=O)Nc1ccn(C)n1 [Example 327, 3-Fluoro-7-isopropoxy-N-(1-methyl-1H-pyrazol-3-yl)-2-(1-methyl-2-oxabicyclo[2.1.1]hexan-4-yl)imidazo[1,2-a]pyridine-6-carboxamide trifluoroacetate]	0.0372
COc1ncccc1NC(=O)c1cn2cc(C34COC(C)(C3)C4)nc2cc1OC(F)F [Example 332, 7-(Difluoromethoxy)-N-(2-methoxypyridin-3-yl)-2-(1-methyl-2-oxabicyclo[2.1.1]hexan-4-yl)imidazo[1,2-a]pyridine-6-carboxamide trifluoroacetate]	0.0052

Next, values leading:

IC50 [µM]	SMILES
0.002	CC(C)Oc1cc2nc(C34COC(C)(C3)C4)c(F)n2cc1C(=O)Nc1cccc(C(F)F)n1 [Example 324, N-(6-(difluoromethyl)pyridin-2-yl)-3-fluoro-7-isopropoxy-2-(1-methyl-2-oxabicyclo[2.1.1]hexan-4-yl)imidazo[1,2-a]pyridine-6-carboxamide trifluoroacetate]
0.0052	CC12CC(c3cn4cc(C(=O)Nc5cccc(C(F)F)n5)c(OC(F)F)cc4n3)(CO1)C2 [Example 333, 7-(Difluoromethoxy)-N-(6-(difluoromethyl)pyridin-2-yl)-2-(1-methyl-2-oxabicyclo[2.1.1]hexan-4-yl)imidazo[1,2-a]pyridine-6-carboxamide trifluoroacetate]
